Assay results as given in the NIST ThermoML archive (doi:10.1016/j.tca.2008.03.014).
Numbers after ± are expanded uncertainties.

Conditions: Crystal; DTA

Normal melting temperature | SMILES
790.1 ± 1 °C | [F-].[Rb+] [rubidium fluoride (RbF)]
650.00 ± 1 °C | [I-].[Rb+] [rubidium iodide (RbI)]
